In PubChem BioAssay AID2060499 (Molecular Pharmacology Branch, DTP, NCI, 2025):

Test system: 777334-354-R2-J4-PDC tumor spheroids with HUVEC/MSC, viability
Experiment: Anticancer human tumor 777334-354-R2-J4-PDC patient-derived pancreatic adenocarcinoma cell line growth inhibition [GQUAD]
Settings: for IC50: curve of first compound; for viability, T/C: stronger effect = lower value
In short: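 Tumor cells were grown as complex spheroids with HUVEC endothelial cells and mesenchymal stem cells as stroma. G-quadruplex stabilizers were combined with targeted agents over half-log dilutions from near the clinical Cmax, or from 10 microM.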

[1] = second compound 0.0316 µM, first compound 0.0316 µM
[2] = second compound 0.0316 µM, first compound 0.316 µM
[3] = second compound 0.1 µM, first compound 0.0316 µM
[4] = second compound 0.1 µM, first compound 0.316 µM
[5] = second compound 0.316 µM, first compound 0.0316 µM
[6] = second compound 0.316 µM, first compound 0.316 µM
[7] = second compound 1 µM, first compound 0.0316 µM
[8] = second compound 1 µM, first compound 0.316 µM
[9] = second compound 3.16 µM, first compound 0.0316 µM
[10] = second compound 3.16 µM, first compound 0.316 µM
[11] = second compound 10 µM, first compound 0.0316 µM
[12] = second compound 10 µM, first compound 0.316 µM
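Also: spheroids exposed to compounds for 7 days before readout.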

O=c1[nH]cc(F)c(=O)[nH]1 + Cc1[nH]c2ccc(F)cc2c1-c1nc2c3cccnc3c3ncccc3c2[nH]1
IC50 (second compound 0.0316 µM): > 10000 nM
IC50 (second compound 0.1 µM): > 10000 nM
IC50 (second compound 0.316 µM): > 10000 nM
IC50 (second compound 1 µM): > 10000 nM
IC50 (second compound 3.16 µM): < 31.6 nM
IC50 (second compound 10 µM): < 31.6 nM
viability, T/C [1]: 95.5%
viability, T/C (second compound 0.0316 µM, first compound 0.1 µM): 93.3%
viability, T/C [2]: 105%
viability, T/C (second compound 0.0316 µM, first compound 1 µM): 82.5%
viability, T/C (second compound 0.0316 µM, first compound 3.16 µM): 71.3%
viability, T/C (second compound 0.0316 µM, first compound 10 µM): 61.5%
viability, T/C [3]: 113%
viability, T/C (second compound 0.1 µM, first compound 0.1 µM): 100%
viability, T/C [4]: 103%
viability, T/C (second compound 0.1 µM, first compound 1 µM): 72%
viability, T/C (second compound 0.1 µM, first compound 3.16 µM): 80.8%
viability, T/C (second compound 0.1 µM, first compound 10 µM): 61.7%
viability, T/C [5]: 89.1%
viability, T/C (second compound 0.316 µM, first compound 0.1 µM): 103%
viability, T/C [6]: 86.1%
viability, T/C (second compound 0.316 µM, first compound 1 µM): 76.8%
viability, T/C (second compound 0.316 µM, first compound 3.16 µM): 79.4%
viability, T/C (second compound 0.316 µM, first compound 10 µM): 67.5%
viability, T/C [7]: 74.7%
viability, T/C (second compound 1 µM, first compound 0.1 µM): 89.5%
viability, T/C [8]: 72.9%
viability, T/C (second compound 1 µM, first compound 1 µM): 61.1%
viability, T/C (second compound 1 µM, first compound 3.16 µM): 68.7%
viability, T/C (second compound 1 µM, first compound 10 µM): 53.3%
viability, T/C [9]: 44.6%
viability, T/C (second compound 3.16 µM, first compound 0.1 µM): 38.4%
viability, T/C [10]: 31.2%
viability, T/C (second compound 3.16 µM, first compound 1 µM): 28.8%
viability, T/C (second compound 3.16 µM, first compound 3.16 µM): 27.7%
viability, T/C (second compound 3.16 µM, first compound 10 µM): 25%
viability, T/C [11]: 29.6%
viability, T/C (second compound 10 µM, first compound 0.1 µM): 29.1%
viability, T/C [12]: 24.5%
viability, T/C (second compound 10 µM, first compound 1 µM): 17.4%
viability, T/C (second compound 10 µM, first compound 3.16 µM): 16.4%
viability, T/C (second compound 10 µM, first compound 10 µM): 18.5%

Cn1ncnc1[C@H]1c2n[nH]c(=O)c3cc(F)cc(c23)N[C@@H]1c1ccc(F)cc1 + Cc1cnc(CNC(=O)c2c(=O)c3ccc(N4CCCN(C)CC4)nc3n3c2sc2ccccc23)cn1
IC50 (second compound 0.0316 µM): > 316 nM
IC50 (second compound 0.1 µM): > 316 nM
IC50 (second compound 0.316 µM): > 316 nM
IC50 (second compound 1 µM): > 316 nM
IC50 (second compound 3.16 µM): > 316 nM
IC50 (second compound 10 µM): > 316 nM
viability, T/C (second compound 0.0316 µM, first compound 0.000999 µM): 97.7%
viability, T/C (second compound 0.0316 µM, first compound 0.00316 µM): 86.3%
viability, T/C (second compound 0.0316 µM, first compound 0.00999 µM): 96.8%
viability, T/C [1]: 95%
viability, T/C (second compound 0.0316 µM, first compound 0.0999 µM): 104%
viability, T/C [2]: 88%
viability, T/C (second compound 0.1 µM, first compound 0.000999 µM): 86.4%
viability, T/C (second compound 0.1 µM, first compound 0.00316 µM): 72.6%
viability, T/C (second compound 0.1 µM, first compound 0.00999 µM): 90.8%
viability, T/C [3]: 86.2%
viability, T/C (second compound 0.1 µM, first compound 0.0999 µM): 94.5%
viability, T/C [4]: 78.2%
viability, T/C (second compound 0.316 µM, first compound 0.000999 µM): 83.7%
viability, T/C (second compound 0.316 µM, first compound 0.00316 µM): 81.1%
viability, T/C (second compound 0.316 µM, first compound 0.00999 µM): 71.9%
viability, T/C [5]: 79.6%
viability, T/C (second compound 0.316 µM, first compound 0.0999 µM): 87.5%
viability, T/C [6]: 68%
viability, T/C (second compound 1 µM, first compound 0.000999 µM): 77.7%
viability, T/C (second compound 1 µM, first compound 0.00316 µM): 74.1%
viability, T/C (second compound 1 µM, first compound 0.00999 µM): 64.4%
viability, T/C [7]: 71.3%
viability, T/C (second compound 1 µM, first compound 0.0999 µM): 76.5%
viability, T/C [8]: 62.5%
viability, T/C (second compound 3.16 µM, first compound 0.000999 µM): 60.7%
viability, T/C (second compound 3.16 µM, first compound 0.00316 µM): 63.8%
viability, T/C (second compound 3.16 µM, first compound 0.00999 µM): 57.3%
viability, T/C [9]: 60.6%
viability, T/C (second compound 3.16 µM, first compound 0.0999 µM): 61%
viability, T/C [10]: 54%
viability, T/C (second compound 10 µM, first compound 0.000999 µM): 52.1%
viability, T/C (second compound 10 µM, first compound 0.00316 µM): 58.4%
viability, T/C (second compound 10 µM, first compound 0.00999 µM): 58.2%
viability, T/C [11]: 68.7%
viability, T/C (second compound 10 µM, first compound 0.0999 µM): 56.1%
viability, T/C [12]: 51.8%
